Data set [1] has as its system Sheep blood. Put plainly: Hemolysis assay. To be noted: Supplemental table S9; 1 hour incubation at 37 °C, lipopeptides at 32 µg/mL. It is filed as cell-based. The procedure, abridged: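 Washed sheep erythrocytes in PBS were incubated with serial peptide dilutions, top concentration 64 µg/mL with 2% DMSO, for 1 h at 37 °C. Released hemoglobin in the supernatant was read at 414 nm and referenced to 0.1% Triton X-100 (100% lysis) and PBS/2% DMSO (0% lysis).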

Data set [2] deals with E. faecium (VRE2297). Put plainly: microbe, parasite or virus in culture. It is filed as cell-based, Enterococcus faecium. A digest of the protocol: (§1)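 Growth inhibition was scored by broth microdilution in TSB against peptide serial dilutions (maximum 512 µg/ml; lipidated analogues maximum 64 µg/ml; 2% DMSO). Bacteria reaching OD600 0.5 were added from a 1 x 10^6 CFU/ml suspension, then plates were incubated shaking at 250 rpm.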

For data set [3], the system named is E. faecium (E980). Put plainly: microbe, parasite or virus in culture. It is filed as cell-based, Enterococcus faecium. A digest of the protocol: as §1
Data set [4] relates to E. faecium (VRE0321). Briefly: microbe, parasite or virus in culture. It is filed as cell-based, Enterococcus faecium. The procedure, abridged:
as §1

The subject of data set [5] is E. faecium (VRE7391). Put plainly: microbe, parasite or virus in culture. It is filed as cell-based, Enterococcus faecium. The procedure, abridged:
as §1

For data set [6], the system named is C15-P (farnesyl-phosphate). Put plainly: Antagonization assay with C15-P (negative control). More on the design: key: +: antagonization of antibiotic activity; -: no antagonization of antibiotic activity. It is filed as cell-based. The following applies: Supplemental table S10, peptide at 4x MIC, 4 molar equivalents, M. luteus, 16 h at 30°C, growth observed visually. The procedure:
Section 4 Biological and biochemical experiments
4.1 Minimum inhibitory concentration assay
MIC values were determined by using the broth microdilution method. Peptides were dissolved first in DMSO and diluted with broth so that the final peptide concentration was 1024 µg/ml and the DMSO concentration was 4%. Peptide serial dilutions were made in TSB in a polypropylene 96-wells plate using 50 µl volumes. An overnight culture of the organism of interest was diluted to and OD600 of 0.01 and grown until they reach 0.5. The culture was then diluted to 1 x 10^6 CFU/ml and 50 µl of this suspension was added to each well. The highest concentrations were then 512 µg/ml peptide and 2% DMSO. The plates were incubated at the preferred growth temperature of the organism that was used and 250 rpm. […] When […]
determining the MICs of the lipidated peptides, the lipopeptides were first dissolved in DMSO and diluted with TSB so that the peptide concentration was 128 µg/ml and the DMSO concentration was 4%. After inoculation the highest peptide concentration evaluated was 64 µg/ml and the DMSO concentration was 2%. A DMSO control was tested for each strain to ensure the DMSO did not affect the growth of the particular strain. […]
4.4 Antagonization assays
Stock solutions of each peptide antibiotic were prepared so that their final concentration in the assay would be 4x MIC. Peptides were transferred to a 96 wells plate and lipid II or C15-P (farnesyl-phosphate) was added at 4 molar equivalents in a final volume of 50 µl. Each well received 50 µl of bacterial suspension (M. luteus) at 1 x 10^6 CFU/ml and the plates were incubated for 16 h at 250 rpm and 30°C. Growth was observed visually (see supplemental table S10 for results).
Supplemental table S10. Lipid II antagonization assay results
Result with indicated antagonista
Antibiotic compound Lipid II C55-PP C15-Pb […]
a + = antagonization of antibiotic activity; - = no antagonization of antibiotic activity; b C -P was used as a negative […]
control (C15-P is a watersoluble analogue of the lipid II precursor undecaprenol phosphate).
4.6 Scanning Electron Microscopy
E. faecium E155 was inoculated at an OD600nm of 0.05 into 300 µL of cation adjusted TSB containing P8-D-(S6R, R15A)-C10 or nisin at (both a 2x MIC) along with 1% glucose and 1%
DMSO. An untreated culture was used as control. Following overnight incubation (ca. 16 hr) bacterial cells were fixed for 15 minutes with 1% (v/v) glutaraldehyde in phosphate buffered saline (PBS) at room temperature on poly-L-lysine covered glass slides (12 mm diameter). […]

For data set [7], the system named is M. luteus (NCTC2665). Briefly: microbe, parasite or virus in culture. It is filed as cell-based, Micrococcus luteus. The procedure, abridged: as §1
In data set [8] the test system is B. subtilis (168). Put plainly: microbe, parasite or virus in culture. It is filed as cell-based. The procedure, abridged:
as §1

Data set [9] deals with S. epidermidis (1587). Put plainly: microbe, parasite or virus in culture. It is filed as cell-based. The procedure, abridged: as §1
Data set [10] relates to S. pyogenes (5448). Put plainly: microbe, parasite or virus in culture. It is filed as cell-based. A digest of the protocol: as §1
Where [11] appears, read: Supplemental table S9, vancomycin-resistant isolate, MIC values of Table 2 expressed in µM.
Where [12] appears, read: Table 2, vancomycin-resistant isolate from hospitalized patients, broth microdilution in TSB, 16 h, highest tested 64 µg/ml.
Setting [13] is: Supplemental table S9, MIC values of Table 2 expressed in µM.
[14] abbreviates: Table 2, broth microdilution in TSB, 16 h, read visually, highest tested 64 µg/ml.
The mark [15] stands for this setting: Table 2, broth microdilution in TSB, 16 h, read visually, highest tested 64 µg/ml, 2% DMSO.

From PMC5853558, “De novo identification of lipid II binding lipopeptides with antibacterial activity against vancomycin-resistant bacteria” (Chemical Science, 2017) come the findings set out here.

Values after ≈ are worked out from the molar mass of the structure shown. *1 amine or outer side, *2 acyl side, *3 side chain or, on linkers, in order; H or OH if unused. Where a SMILES comes first, the peptide text is derived from it. Bridges are numbered along the chain shown (N, C = ends). [ ]: non-standard residue; d: D form. The star is where a group is joined. TBMB = c1c(C[*:1])cc(C[*:3])cc1C[*:2]; NHDecyl = CCCCCCCCCCN*

Turning to `CCCCCCCCCCNC(=O)CNC(=O)[C@@H]1CSCc2cc3cc(c2)CSC[C@H](NC(=O)[C@H](CC(C)C)NC(=O)[C@H](CC(C)C)NC(=O)[C@H](CCCNC(=N)N)NC(=O)[C@H](CCC(N)=O)NC(=O)[C@H](CC(C)C)NC(=O)[C@H](CC(C)C)NC(=O)[C@@H](NC(=O)[C@H](C)N)CSC3)C(=O)N2CCC[C@H]2C(=O)N[C@@H](Cc2ccc(O)cc2)C(=O)N[C@@H](CO)C(=O)N[C@@H]([C@@H](C)O)C(=O)N[C@@H](Cc2c[nH]cn2)C(=O)N[C@@H](C)C(=O)N1` [P8-L-(S6R, R15A)-C10] (H-ACLLQRLLCPYSTHACG-NHDecyl; linker 2-9-16 via TBMB; N-terminus assumed), the Hemolysis in data set [1] is recorded as 0%. The “MIC E. faecium (VRE2297)” value stood at 15.2 µM (≈ 32 µg/mL) in data set [2] (setting [11]) and 16 μg mL^–1 in data set [2] (setting [12]). The “MIC E. faecium (E980)” value in data set [3] (setting [13]) is listed as 30.5 µM (≈ 64.1 µg/mL); in data set [3] (setting [14]), 32 μg mL^–1. In addition, the “MIC E. faecium (VRE0321)” value in data set [4] (setting [11]) turned out to be 7.6 µM (≈ 16 µg/mL); in data set [4] (setting [12]), 8 μg mL^–1. Also, the “MIC E. faecium (VRE7391)” value in data set [5] (setting [11]) is 15.2 µM (≈ 32 µg/mL); in [5] (setting [12]), 16 μg mL^–1. In addition, the “Result with antagonist C15-P” value in data set [6] was “-”. The “MIC M. luteus (NCTC2665)” value in data set [7] (setting [13]) was found to be 3.8 µM (≈ 7.99 µg/mL); in data set [7] (setting [15]), 4 μg mL^–1. Besides, the “MIC B. subtilis (168)” value in data set [8] (setting [13]) came out at 7.6 µM (≈ 16 µg/mL); in [8] (setting [14]), 8 μg mL^–1. Moreover, the figures for the “MIC S. epidermidis (1587)” value in data set [9] (setting [13]) and in data set [9] (setting [14]) were 30.5 µM (≈ 64.1 µg/mL) and 32 μg mL^–1, respectively. In addition, the “MIC S. pyogenes (5448)” value in data set [10] (setting [13]) was determined as 7.6 µM (≈ 16 µg/mL); in [10] (setting [14]) it was 8 μg mL^–1.

With `CCCCCCCCCCNC(=O)CNC(=O)[C@H]1CSCc2cc3cc(c2)CSC[C@@H](NC(=O)[C@@H](CC(C)C)NC(=O)[C@@H](CC(C)C)NC(=O)[C@@H](CCCNC(=N)N)NC(=O)[C@@H](CCC(N)=O)NC(=O)[C@@H](CC(C)C)NC(=O)[C@@H](CC(C)C)NC(=O)[C@H](NC(=O)[C@@H](C)N)CSC3)C(=O)N2CCC[C@@H]2C(=O)N[C@H](Cc2ccc(O)cc2)C(=O)N[C@H](CO)C(=O)N[C@H]([C@H](C)O)C(=O)N[C@H](Cc2c[nH]cn2)C(=O)N[C@H](C)C(=O)N1` [P8-D-(S6R, R15A)-C10] (H-[dA][dC][dL][dL][dQ][dR][dL][dL][dC][dP][dY][dS][dT][dH][dA][dC]G-NHDecyl; linker 2-9-16 via TBMB; N-terminus assumed), the Hemolysis in data set [1] is 0%. For the same molecule, the “MIC E. faecium (VRE2297)” value in data set [2] (setting [11]) is 15.2 µM (≈ 32 µg/mL); in data set [2] (setting [12]), 16 μg mL^–1. The “MIC E. faecium (E980)” value in [3] (setting [13]) is recorded as 30.5 µM (≈ 64.1 µg/mL); in data set [3] (setting [14]) it was 32 μg mL^–1. Besides, the “MIC E. faecium (VRE0321)” value in [4] (setting [11]) came out at 7.6 µM (≈ 16 µg/mL); in data set [4] (setting [12]), 8 μg mL^–1. Besides, the “MIC E. faecium (VRE7391)” value in data set [5] (setting [11]) is 15.2 µM (≈ 32 µg/mL); in data set [5] (setting [12]) it was 16 μg mL^–1. Further, the “Result with antagonist C15-P” value in data set [6] was “-”. Moreover, the figures for the “MIC M. luteus (NCTC2665)” value in data set [7] (setting [13]) and in data set [7] (setting [15]) were 3.8 µM (≈ 7.99 µg/mL) and 4 μg mL^–1, respectively. The figures for the “MIC B. subtilis (168)” value in data set [8] (setting [13]) and in data set [8] (setting [14]) were 7.6 µM (≈ 16 µg/mL) and 8 μg mL^–1, respectively. Besides, the “MIC S. epidermidis (1587)” value in [9] (setting [13]) was determined as 60.9 µM (≈ 128 µg/mL); in [9] (setting [14]), 64 μg mL^–1. In [10] (setting [14]), the “MIC S. pyogenes (5448)” value was 8–16 μg mL^–1.
